What was measured:
[1] = tested on: experimental animal model of osteoarthritis (OA); assay: Slope walking test in osteoarthritis rat model; assay type: in vivo, Wistar rats
Experimental: (§1) Healthy adult male Wistar rats (150-200 g) were used for the study, with water and food ad libitum, at a constant temperature of 22°C and controlled lighting (12 h light/12 h dark cycle).
As far as the dispersion procedure of the injectables is concerned, all the natural compounds were dissolved in saline solution, whereas the studied nanoparticles were mechanically grinded in a mortar and pestle set with saline solution and Tween 20 (2% w/v) and heated at 36 °C before each treatment. There were six treatments administered every 10 days.
(§2) Rats were anesthetized with chloral hydrate. The right knee joints of Group I were injected with normal saline solution and served as a control. Animals from the groups II, III, IV, V, VI, VII were injected with collagenase type II (Clostridium histolyticum). Collagenase (125 collagen digestion unit/mg) was dissolved in saline, and it was injected intra-articularly into the right knee joint twice on days 1 and 4 of the experiment (Al-Saffar, F., H. Ganabadi and S. Fakurazi. Collagenase and sodium iodoacetate-induced experimental osteoarthritis model in Sprague dawley rats. Asian J. Sci. Res. 2: 1-13, 2009). The left knees of all animals were left untreated as a control.
For the evaluation of the effectiveness and time of release of the encapsulated compounds, all animals were subjected to a series of behavioral testing in addition to the measurements of body weight and knees diameter change. The experimental protocol of the present study followed the combination of three different behavioral tests, which are von Frey mechanical allodynia test, grid walking and slope walking test. Behavioral tests are performed in three phases, at the beginning before the start of treatment, in the middle of treatment (approximately 35-40 days) and at the end (after the 70th day).
Walking on an inclined plane was used for the clinical assessment of motor function in rats after induction of OA. The method consists of placing the animal on an inclined plane and then measuring the time (seconds) needed for the animals to go up the walking tray.

MMP-13 = MMP-13 ELISA in secretions of TNFα-stimulated chondrocytes; assay type: cell-based, human; details: for Mean % relative MMP-13 secretion (72h): co-treatment with TNFα, normalized to negative control (TNFα only)
From the text: Matrix Mettaloproteinase 13 (MMP-13) is the main culprit in the destabilization of the anabolic/catabolic balance in the articular joint. MMP-13 […] balance towards catabolism and collagen II degradation which aggravates the OA pathology and is an enzyme that is secreted by chondrocytes in the extracellular environment. […] A decrease in MMP-13 levels is desirable, correlates with less degradation of cartilage and is widely used in the OA research field as a histopathological marker to evaluate amelioration of OA cellular pathology in the joint following an intervention. Finding Nanoparticles that can reduce MMP-13 levels in the assay is a promising lead for a favorable effect in a pre-clinical animal model in vivo. […] The results in Table 6 are the mean relative values from at least 3 independent repetitions of the experiments. Table 6. MMP-13 ELISA results as normalized values relative to negative control (NC, TNFα-stimulated cells without nanosystems) from 3 independent experiments. The standard deviations are omitted for simplicity. Samples' coding: S1=Naringin pure compound, S2=Naringin encapsulated in PLA nanoparticles [PLA[NAR]], S3=Naringin encapsulated in PLA nanoparticles coated with chitosan CS[PLA[NAR]], and S4=Blank PLA nanoparticles coated with chitosan, CS[PLA[---]].

[2] = target: T1, soybean lipoxygenase (LOX) (Glycine max, UniProt P08170); assay: Soybean lipoxygenase inhibition assay in vitro; assay type: biochemical
T1 sequence (P08170 1-839): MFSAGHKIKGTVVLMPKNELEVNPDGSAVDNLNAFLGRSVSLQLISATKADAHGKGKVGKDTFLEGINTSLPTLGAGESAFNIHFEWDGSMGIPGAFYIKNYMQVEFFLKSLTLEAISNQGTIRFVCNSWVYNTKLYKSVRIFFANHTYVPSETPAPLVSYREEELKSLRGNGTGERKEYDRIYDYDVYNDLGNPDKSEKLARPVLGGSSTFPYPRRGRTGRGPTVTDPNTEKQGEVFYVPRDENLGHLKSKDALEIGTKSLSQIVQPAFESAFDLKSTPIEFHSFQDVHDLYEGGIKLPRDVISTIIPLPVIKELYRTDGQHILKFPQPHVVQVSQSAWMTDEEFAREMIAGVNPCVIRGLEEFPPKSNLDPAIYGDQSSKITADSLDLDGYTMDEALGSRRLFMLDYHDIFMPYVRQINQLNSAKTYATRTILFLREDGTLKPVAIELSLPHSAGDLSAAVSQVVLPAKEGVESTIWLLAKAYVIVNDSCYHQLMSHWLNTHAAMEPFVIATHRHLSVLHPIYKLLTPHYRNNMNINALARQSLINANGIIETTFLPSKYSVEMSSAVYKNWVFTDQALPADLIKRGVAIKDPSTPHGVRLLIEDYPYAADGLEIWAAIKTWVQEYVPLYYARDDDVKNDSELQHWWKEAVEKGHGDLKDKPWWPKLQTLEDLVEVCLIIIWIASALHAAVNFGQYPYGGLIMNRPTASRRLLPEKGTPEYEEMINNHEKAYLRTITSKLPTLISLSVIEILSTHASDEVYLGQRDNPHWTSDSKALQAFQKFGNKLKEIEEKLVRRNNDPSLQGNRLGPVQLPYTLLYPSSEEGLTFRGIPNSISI
Experimental: The soybean lipoxygenase (LOX) test is a representative assay for anti-inflammatory activity since LOX is implicated in the inflammatory cascade. LOXs contain a "non-heme" iron per molecule in the catalytic active site as high-spin Fe^+2 in the native state and high-spin Fe^+3 in the activated state. […] The inhibitory activity of several LOX inhibitors, such as phenolic derivatives, can be attributed to their chelating capacity to Fe^+3. In brief, two reaction mixtures are prepared in UV cuvettes for each sample, the first reaction mixture contains LOX solution (dissolved in Tris buffer, pH 9) and the sample under examination, whereas the second reaction mixture also contained LLA solution (dissolved in 0.9% NaCl). Both reaction mixtures were measured at room temperature at 234 nm. The inhibition of LOX was measured in the presence of the same level of DMSO, which served as control.
Table 2: Anti-inflammatory potential of the samples expressed as % inhibition of LOX

[3] = Body weight in collagenase-induced osteoarthritis rat model; assay type: in vivo, Wistar rats
Experimental: In order to understand the anti-inflammatory and antioxidant potential of the nanoparticles of the invention in vivo an experimental animal model of osteoarthritis (OA) was established. The OA lesions were caused by matrix degradation of articular cartilage using enzymatic means, such as collagenase type-II. Following the induction of osteoarthritis, the studied nanoparticles were administered for 8 weeks in which period the morphological and behavioral changes were measured and finally histological analysis of the articular cartilage samples concluded the in vivo study.
as §1
As far as the dispersion procedure of the injectables is concerned, all the natural compounds were dissolved in saline solution, whereas the studied nanoparticles were mechanically grinded in a mortar and pestle set with saline solution and Tween 20 (2% w/v) and heated at 36 °C before each treatment. There were six treatments administered every 10 days. At the end of the experiment rats were euthanized and both knees were collected for histological analysis.
as §2
Changes in body weight and knee diameter were measured on the 1st, 4th,11th,21st,31st,41st,51st, 61st, 71st day before every injection. Knee diameter was measured using a digital caliper. […] A change in body weight is also measured as one of the parameters to assess the course of the disease in the OA animal models.

RAW264.7 cells = assay: MTT cell viability assay; assay type: cell-based, mouse; details: for % cell viability: 24h
From the text: The MTT (3-[4,5-dimethylthiazol-2-yl]-2,5 diphenyl tetrazolium bromide) assay is based on the ability of viable cells with active metabolism to convert the yellow MTT to a purple formazan product, which determines mitochondrial activity. The MTT formazan product agglomerates as an insoluble residuum within the cells, which can be solubilized (in this protocol with DMSO) for homogeneous measurement. Thus, any increase or decrease in the number of viable cells can be detected by measuring the formazan concentration reflected in the optical density (OD) measurement at 540 nm with a reference absorption of 720 nm. This assay is broadly used to measure the in vitro cytotoxic effects of drugs on cell lines or primary cells. For the experimental procedure a standard solution of MTT 1mg/mL in PBS was prepared which after filtration ([…] filter (Millipore, Carrigtwohill, Ireland)) was stored in the dark (4-8 °C) until use. In brief, RAW 264.7 cells were seeded in a 96-well plate at a density of 30.000 cells/ in 100 µL of medium per well. […] This was followed by incubation for 24 h, 48 h and 72 h. At the end of the incubation 10 µL of MTT was added to each well followed by incubation for 4 hours, for the formation of the formazan crystals. The formazan crystals were then dissolved by adding DMSO and stirring lightly for 30 min, after which the absorbance was measured in a plate reader at 540 nm with a reference absorbance of 720 nm. […] Table 4: % cell viability after treatment of RAW264.7 cells with the samples

[4] = 40 days (half of experimental protocol)
[5] = 70 days (end of experimental protocol)

## C[C@@H]1O[C@@H](O[C@H]2[C@H](Oc3cc(O)c4c(c3)O[C@H](c3ccc(O)cc3)CC4=O)O[C@H](CO)[C@@H](O)[C@@H]2O)[C@H](O)[C@H](O)[C@H]1O [S1 [NAR], Naringin]
[1]; 11 days (before treatment)
  Slope Walking: 10,3 sec
[1]; [4]
  Slope Walking: 8,9 sec
[1]; [5]
  Slope Walking: 8,6 sec
MMP-13; 10 µM Naringin (free or encapsulated)
  Mean % relative MMP-13 secretion (72h): 110,57%
MMP-13; 50 µM Naringin (free or encapsulated)
  Mean % relative MMP-13 secretion (72h): 113.28%
MMP-13; 200 µM
  Mean % relative MMP-13 secretion (72h): 102,77%
MMP-13; TNFα-stimulated chondrocytes
  decrease in MMP-13 (in words): did not give a detectable decrease
[2]; 25 µM, 24h
  inhibition at 25 µM: 7.1%
[2]; 50 µM, 24h
  inhibition at 50 µM: 21.2%
[2]; 100 µM, 24h
  inhibition at 100 µM: 44.6%
[2]; 48 and 72 h
  LOX inhibition at 48 and 72 h compared with 24 h (in words): no significant difference
[3]; 1st injection CO/saline (before treatment)
  Body Weight (BW): 247 g
[3]; 1st treatment, 10 mg/kg (S1, ibuprofen i.p.; nanoparticles i.a.), every 10 days
  Body Weight (BW): 239 g
[3]; 2nd injection CO/saline (before treatment)
  Body Weight (BW): 236 g
[3]; 2nd treatment, 10 mg/kg (S1, ibuprofen i.p.; nanoparticles i.a.)
  Body Weight (BW): 247 g
[3]; 3rd treatment, 10 mg/kg (S1, ibuprofen i.p.; nanoparticles i.a.)
  Body Weight (BW): 276 g
[3]; 4th treatment, 10 mg/kg (S1, ibuprofen i.p.; nanoparticles i.a.)
  Body Weight (BW): 294 g
[3]; 5th treatment, 10 mg/kg (S1, ibuprofen i.p.; nanoparticles i.a.)
  Body Weight (BW): 317 g
[3]; 6th treatment, 10 mg/kg (S1, ibuprofen i.p.; nanoparticles i.a.)
  Body Weight (BW): 326 g
[3]; 11 days (before treatment)
  % Changes in Body Weight (BW): -3,2%
[3]; [4]
  % Changes in Body Weight (BW): 19,0%
[3]; [5]
  % Changes in Body Weight (BW): 34,8%
[3]; final, 10 mg/kg (S1, ibuprofen i.p.; nanoparticles i.a.)
  Body Weight (BW): 333 g
RAW264.7 cells; 25 µM
  % cell viability: 100%
RAW264.7 cells; 50 µM
  % cell viability: 100%
RAW264.7 cells; lower concentrations
  cytotoxicity / cell viability (in words): full cell viability

— patent EP4385495A1, “NANOSYSTEMS FOR THE ENCAPSULATION OF THERAPEUTIC AGENTS” (National Technical University of Athens, priority 2022, dated 2024)
